Test results taken from US8088897B2, “Assay method for group transfer reactions” (BellBrook Labs, Inc., priority 2003, dated 2012).
Where two headings read alike, the source gives them in different places.

Columns and labels:
[1] = biological target: T1, SULT1E1 (Homo sapiens, UniProt P49888); assay: SULT1E1 enzymatic properties (Km, acceptor substrate specificity); type: biochemical; conditions: for acceptor substrate specificity: purified SULT1E1
T1 construct: made in house; host or cells: E. coli
T1 sequence (P49888 1-294): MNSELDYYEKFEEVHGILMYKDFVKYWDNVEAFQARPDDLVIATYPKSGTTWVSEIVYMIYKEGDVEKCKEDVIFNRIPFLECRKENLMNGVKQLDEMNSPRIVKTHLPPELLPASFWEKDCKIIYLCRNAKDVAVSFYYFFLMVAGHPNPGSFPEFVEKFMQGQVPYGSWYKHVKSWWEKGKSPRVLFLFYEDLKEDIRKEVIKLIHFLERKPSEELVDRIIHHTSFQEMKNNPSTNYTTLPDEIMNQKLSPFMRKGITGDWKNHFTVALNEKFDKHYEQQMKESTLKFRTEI
Source text: In order to establish a sulfotransferase HTS assay method, SULT1E1, a SULT isoform, was first subcloned into an E. coli expression vector with a C-terminal 6× histidine tag and the expressed protein was purified by affinity chromatography and characterized with respect to its physical and enzymatic properties.

[2] = test system: Ab 1781; assay: FP competition curves with Ab 1781 and PAP tracer; type: binding, rabbit; conditions: 1 nM C8-PAP-F14 tracer, 3 uL Ab 1781; read-out: IC50 for displacement of tracer
Experimental: (§1) Competitors were serially diluted two-fold in a black 384-well microtiter plate containing 50 mM phosphate buffer (pH 7.4), 150 mM NaCl, 0.1 mg/mL BGG, 1 nM Tracer C8-PAP-F14, and either 1.5 uL Ab 3642 (A) or 3 uL Ab 1781 (B) in a total volume of 12 uL. After one hour incubation at room temperature, the polarization values were read on a Tecan Ultra (Ex485/Em535). The mean and standard deviation of duplicates for all data sets are shown.

[3] = test system: Ab 3642; assay: FP competition curves with Ab 3642 and PAP tracer; type: binding, rabbit; conditions: read-out: IC50 for displacement of tracer
Experimental: N6-PAP-6F8 tracer is represented by the open symbols: ◯ (PAP), □ (PAPS). C8-PAP-F14 tracer is represented with the closed symbols: ● (PAP), ▪ (PAPS). PAP or PAPS was serially diluted two-fold in black mutiwell plates containing 50 mM phosphate buffer (pH 7.4), 150 mM NaCl, 0.1 mg/mL BGG, 1 nM C8-PAP-F14, and 1.5 uL purified Ab 3642 in a total volume of 12 μl or 1 nM N6-PAP-F8 and 0.5 uL 3642 Ab in a 20 uL volume. Polarization values were read after one hour at room temperature.
as §1

[4] = biological target: polyclonal antibody raised against a mixture of UTP and UDP conjugated to KLH (UGT-1); assay: Competitive FP displacement of UTP tracers from anti-UDP/UTP antibody by uridine nucleotides; type: binding, rabbit
Experimental: To detect UGT catalytic activity a series of experiments were performed using the antibodies and tracers described above. […] The antibody and 2 nM of a commercially available Alexa® 488-5-aminoalkynyl-UTP molecule (Molecular Probes) were added to wells of a black multiwell plate (Thermo Labsystems Pt# 7605) containing the indicated amounts of uridine nucleotides in 50 mM KPO4pH 7.5, 150 mM NaCl, 0.1 mg/ml BGG . Fluorescence polarization was read in a Tecan Ultra plate reader after several hours of equilibration at room temperature using a Ex485/Em535 filter set.
Applicants further note that the ability of the antibody to selectively recognize low micromolar concentrations of UDP in the presence of UDPGA concentrations typically used for UGT assays —50-100μM —is important for achieving a low signal to background. Varying the structure of the immunogen, as mentioned above, is one way to change the relative binding properties of antibodies for UDP and UDPGA. Another way that is not as immediately obvious is to vary the tracer structure. The method depends on the relative ability of UDP and UDPGA to competitively displace the tracer from antibody, and it is reasonable to assume that not all tracers will show the same relative response to the two nucleotides. An example of such tracer effects is summarized in FIGS. 10 A and B. In this example, two different tracers are compared. The tracers are conjugates of 5-aminoallyl UTP to two different amine reactive Alexa Fluors®, one with an excitation peak of 546 and the other with an excitation of 568. Both of these tracers are displaced from antibody (anti-UDP rabbit polyclonal Ab or UGT-1) in a similar manner by UDP. […] Thus, the signal to background of the UGT assay with a given antibody can be enhanced by identifying tracers that are displaced by UDP more effectively than UDPGA.

[5] = test system: UGT 2B7 Baculosomes; assay: Mock UGT reactions: signal stabilization and reaction quenching; type: biochemical; conditions: EGTA at 80 mM, sodium vanadate at 30 mM; for effect on UDP breakdown: 5 μM UDP added, no acceptor substrate
Experimental: UGT enzymes are available only as crude membrane preparations that contain many other enzymes besides the desired UGT. Some of these contaminating enzymes can catalyze hydrolysis of the UDP molecule to UMP or Uridine, resulting in an unstable signal for the assay. To prevent this, agents such as sodium vanadate and EGTA are added to stabilize the assay signal by preventing breakdown of the UDP formed during the UGT reaction. […] The use of such a quenching reagent provides greater flexibility in experimental protocols because HTS assay plates may be read at any time after the quench reagent is added.

[6] = biological target: GDP monoclonal antibody; assay: FP competition binding of GDP vs GTP to monoclonal antibody-tracer complex; design: species or system mouse; conditions: 2 nM far red Tracer, 0.85 μg/mL antibody, one hour
Experimental: Fluorescence intensity and polarization measurements utilizing the ADP-Alexa Fluor® or GDP-Alexa Fluor® tracers were performed on a Tecan Ultra or Safire^2™ plate reader (Durham, N.C.) using appropriate filter sets. For the ADP-Alexa Fluor®633 tracer, the filters for the Safire2 were 635 nm excitiation (LED) and 670 emission (20 nm bandwidth). The free tracer reference was set to 20 mP, and the buffer (with or without antibody) was used as the buffer blank for both the sample and free tracer reference wells. Data from binding and competition curves were fit to a variable slope sigmoidal dose-response curve and the IC50 were calculated using GraphPad Prism (GraphPad Software, San Diego, Calif.).
To identify suitable antibody/tracer pairs for FP assay development, equilibrium binding assays were performed by titrating ADP/GDP antibodies with a panel of ADP/GDP tracers (1-2 nM). The first well consisted of 1 mg/mL antibody in 30 μL of the final equilibrium buffer (i.e. 50 mM HEPES (pH 7.5), 0.01% Brij-35, 1 mM EGTA, 2 mM MgCl2, 0.5% DMSO, 20 mM EDTA, and 2 nM tracer). A two-fold serial dilution of the antibody was then performed in 15 μL of the same buffer. […]
In one example, the monoclonal antibody binding selectivity between GDP vs. GTP was analyzed and the results are set forth in FIG. 27. […]

[7] = test system: Protein G-purified Anti-ADP antibody; assay: FP competition with 5-FAM-N6-ADP tracer and anti-ADP polyclonal antibody; type: binding, rabbit; conditions: 1 nM 5-FAM-N6-ADP tracer; for amount required to displace the tracer: compared with ADP and ATP; for IC50: 19 hours room temperature, read-out: half maximal point in the competition curve (IC50)
Source text: To develop an anti-ADP antibody, 6-aminobutyl-ADP (Biolog Life Science Inst., Bremen, Germany) was conjugated to keyhole limpet hemocyanin with a suitable reagent such as glutaraldehyde and used to immunize rabbits. Other carrier proteins such as BSA or ovalbumin and other conjugation chemistries may be used. Attachment to carrier protein via the adenine ring exposes the ribosyl-phosphate moiety, where selectivity is required, and minimizes exposure of the adenine ring. The resulting antisera was tested for ADP binding affinity and selectivity in competitive fluorescence polarization binding assays. Synthesis of the fluor-ADP conjugates used as tracers in these binding assays is described below. […] The reaction mixtures consisted of 50 mM KPO4, 150 mM NaCl, 0.1 mg/mL BGG, 1 nM tracer, 3% Protein G-purified Anti-ADP antibody, and competitor. The reaction mixtures were incubated for 19 hours at room temperature. Competitors included ADP (∘), ATP (●), Adenosine (▪), and AMP (▴).

[8] = biological target: T1, SULT1E1; assay: 35S-PAPS radioassay of SULT1E1 inhibition; type: biochemical; conditions: 35S-radioassay
[9] = biological target: T1, SULT1E1; assay: Inhibition of SULT1E1 measured with the FPIA-based assay; type: biochemical
Experimental: Specifically, FIG. 25 is a graph showing inhibition of SULT1E1 by 2,6 Dichloro-4-nitrophenol (DCNP) measured with the FPIA-based assay. DCNP was serially diluted two-fold into wells in 46 uL of phosphate assay buffer (30 mM KPO4 (pH 6.5), 0.5 mg/mL BGG, 15 mM DTT, 1.6 mM MgCl2, 4 μM PAPS), followed by 50 μl of a 2× Antibody/tracer mix (5 uL 3642 Ab/2 nM Tracer C8-PAP-F14), and 200 ng of SULTIE in a total volume of 100 μl. The plate was incubated at room temp for 30 min, and read on the Tecan Ultra. AmP values were calculated by subtracting the SULT1E reactions from the no SULTIE controls. All values represent the mean of replicates.

[10] = biological target: T1, SULT1E1; conditions: acceptor substrate; read-out: Km, published values for purified recombinant SULT1E1; cited from earlier work
[11] = 1 nM C8-PAP-F14 tracer, 1.5 uL Ab 3642
[12] = Alexa 546 5-aminoallyl UTP tracer, UGT-1, read-out: IC50 for displacement of tracer from antibody
[13] = 2 nM Alexa 488-5-aminoalkynyl-UTP tracer, UGT-1 antibody, read-out: half maximal values (IC50) for competing off the tracer

Compound: Nc1ncnc2c1ncn2[C@@H]1O[C@H](COP(=O)(O)OS(=O)(=O)O)[C@@H](OP(=O)(O)O)[C@H]1O [PAPS, 3′-Phosphoadenosine 5′-phosphosulphate]
- Km ([1]; donor, read-out: Km for PAPS with SULT1E1): ~0.05 µM
- IC50 [2]: 1.5 µM
- IC50 [3, 11]: 3.8 µM

Compound: O=C(O)[C@H]1O[C@H](OP(=O)(O)OP(=O)(O)OC[C@H]2O[C@@H](n3ccc(=O)[nH]c3=O)[C@H](O)[C@@H]2O)[C@H](O)[C@@H](O)[C@@H]1O [UDPGA, UDP-glucuronic acid]
- IC50 ([4]; 2 nM Alexa 488-5-aminoalkynyl-UTP tracer, UGT-1 antibody, read-out: IC50 for competing off the tracer): ~2000 µM
- IC50 [4, 12]: 1200 µM

Compound: Sodium vanadate
- effect on UGT activity [5]: very effectively inhibits UGT activity
- effect on UDP breakdown [5]: prevents UDP breakdown

Compound: Nc1nc2c(ncn2[C@@H]2O[C@H](COP(=O)(O)OP(=O)(O)O)[C@@H](O)[C@H]2O)c(=O)[nH]1 [GDP, guanosine diphosphate]
- IC50 [6]: 0.01 µM

Compound: Nc1ncnc2c1ncn2[C@@H]1O[C@H](COP(=O)(O)O)[C@@H](O)[C@H]1O [AMP]
- amount required to displace the tracer [7]: much higher amounts

Compound: O=c1ccn([C@@H]2O[C@H](COP(=O)(O)OP(=O)(O)OP(=O)(O)O)[C@@H](O)[C@H]2O)c(=O)[nH]1 [UTP]
- IC50 [4, 13]: 5 µM

Compound: Nc1ncnc2c1ncn2[C@@H]1O[C@H](COP(=O)(O)O)[C@@H](OP(=O)(O)O)[C@H]1O [PAP, 3′-phosphoadenosine 5′-phosphate]
- IC50 [2]: 0.3 µM
- IC50 [3, 11]: 0.3 µM
- IC50 ([3]; C8-PAP-F14 tracer, Ab 3642): 0.3 µM

Compound: O=c1ccn([C@@H]2O[C@H](COP(=O)(O)OP(=O)(O)O)[C@@H](O)[C@H]2O)c(=O)[nH]1 [UDP]
- IC50 [4, 13]: 15 µM
- IC50 [4, 12]: 7 µM
- IC50 ([4]; Alexa 568 5-aminoallyl UTP tracer, UGT-1, read-out: IC50 for displacement of tracer from antibody): 9 µM

Compound: O=C(O)CN(CCOCCOCCN(CC(=O)O)CC(=O)O)CC(=O)O [EGTA]
- effect on UGT activity [5]: minimal effects
- effect on UDP breakdown [5]: very effectively inhibits UDP breakdown

Compound: NCCc1ccc(O)c(O)c1 [dopamine]
- acceptor substrate specificity [1]: very poor substrates

Compound: O=[N+]([O-])c1cc(Cl)c(O)c(Cl)c1 [DCNP, 2,6 Dichloro-4-nitrophenol]
- Ki [8]: 11000 µM
- Ki [9]: 7800 µM

Compound: Nc1ncnc2c1ncn2[C@@H]1O[C@H](COP(=O)(O)OP(=O)(O)O)[C@@H](O)[C@H]1O [ADP, adenosine diphosphate]
- IC50 [7]: 0.3 µM

Compound: C[C@]12CC[C@@H]3c4ccc(O)cc4CC[C@H]3[C@@H]1CC[C@@H]2O [estradiol]
- Km [10]: 0.005 to 0.015 µM

Compound: Nc1ncnc2c1ncn2[C@@H]1O[C@H](CO)[C@@H](O)[C@H]1O [adenosine, Adenosine]
- amount required to displace the tracer [7]: much higher amounts

Compound: C[C@]12CC[C@H](O)CC1=CC[C@@H]1[C@@H]2CC[C@]2(C)C(=O)CC[C@@H]12 [DHEA]
- acceptor substrate specificity [1]: very poor substrates

Compound: Nc1nc2c(ncn2[C@@H]2O[C@H](COP(=O)(O)OP(=O)(O)OP(=O)(O)O)[C@@H](O)[C@H]2O)c(=O)[nH]1 [GTP, guanosine triphosphate]
- IC50 [6]: 1.3 µM

Compound: Oc1cccc2ccccc12 [α-naphthol]
- acceptor substrate specificity [1]: intermediate

Compound: Nc1ncnc2c1ncn2[C@@H]1O[C@H](COP(=O)(O)OP(=O)(O)OP(=O)(O)O)[C@@H](O)[C@H]1O [ATP, adenosine triphosphate]
- IC50 [7]: 15 µM
